Each molecule was assayed against recombinant PIM-1 (Homo sapiens, UniProt P11309) (assay: PIM-1 kinase assay (radiometric, 15 uM ATP, DMSO 4%)). Conditions: Table 1; % inhibition at the high dose (2 micromolar) in a single screening assay; 15 μM ATP.
Format: biochemical
Protocol: The following procedure was used to assay the PIM-1 kinase activity of compounds of the invention. Other methods for assaying PIM-1 and other PIM kinases, as well as methods to assay for activity against the various kinases in FIG. 1, are known in the art.
(specific activity approx. 500 cpm/pmol), DMSO 4% and test inhibitor compound at the required concentration. The reaction was initiated by the addition of the Magnesium ATP mixture. After 40 min incubation at 23° C., the reactions were quenched by the addition of 100 ul 0.75% Phosphoric acid, and the labeled peptide collected by filtration through a phosphocellulose filter plate. The plate was washed 4 times with 0.075% phosphoric acid (100 ul per well) and then, after the addition of scintillation fluid (20 ul per well), the counts were measured by a scintillation counter.

Chain of recombinant PIM-1 (P11309 whole entry): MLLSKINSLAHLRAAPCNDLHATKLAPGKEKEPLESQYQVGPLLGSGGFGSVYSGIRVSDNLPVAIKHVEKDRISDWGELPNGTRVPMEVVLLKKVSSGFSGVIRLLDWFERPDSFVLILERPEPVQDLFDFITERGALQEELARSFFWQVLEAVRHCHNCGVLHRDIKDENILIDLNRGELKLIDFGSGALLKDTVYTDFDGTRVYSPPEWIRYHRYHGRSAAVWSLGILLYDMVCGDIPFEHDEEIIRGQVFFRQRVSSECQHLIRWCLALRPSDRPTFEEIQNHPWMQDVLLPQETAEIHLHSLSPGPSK

| SMILES | inhibition at 2 µM [%] |
| --- | --- |
| CN1CCCC(NC(=O)c2ccc(-c3ccc(/C=C4/C(=O)Nc5ccccc54)o3)cn2)C1 (centres unmarked) [Compound 129] | 1.44 |
| CN1CCCC(NC(=O)c2ccccc2-c2ccc(/C=C3/C(=O)Nc4ccccc43)o2)C1 (centres unmarked) [Compound 56] | 13.8 |
| O=C1Nc2ccccc2/C1=C\c1ccc(-c2ccc(Cl)c(C(=O)NCCC3CCCN3)c2)o1 (centres unmarked) [Compound 28] | -37.6 |
| CC(C)(C)OC(=O)Nc1cccc(-c2ccc(/C=C3/C(=O)Nc4ccccc43)o2)c1 [Compound 181] | 14.5 |
| NCc1cccc(-c2ccc(/C=C3/C(=O)Nc4ccccc43)o2)c1 [Compound 165] | 19.4 |
| CN1CCN(C(=O)c2ccc(-c3ccc(/C=C4/C(=O)Nc5ccccc54)o3)cn2)CC1 [Compound 136] | 15.2 |
| CN1CCCCC1CNC(=O)c1cccc(-c2ccc(/C=C3/C(=O)Nc4c(Cl)cccc43)o2)c1 (centres unmarked) [Compound 42] | 9.73 |
| CCCC(=O)Nc1cc(C(=O)NCCN2CCCC2)ccc1-c1ccc(/C=C2/C(=O)Nc3ccccc32)o1 [Compound 169] | -29.9 |
| CN1CC(NC(=O)c2cc(-c3ccc(/C=C4/C(=O)Nc5ccccc54)o3)ccc2Cl)C1 [Compound 25] | -15.8 |
| CN(C)C1CCN(C(=O)c2ccc(-c3ccc(/C=C4/C(=O)Nc5ccccc54)o3)cn2)CC1 [Compound 138] | 30.5 |
| CN1CCCCC1CNC(=O)c1ccccc1-c1ccc(/C=C2/C(=O)Nc3ccccc32)o1 (centres unmarked) [Compound 60] | 0.33 |
| O=C1Nc2c(Cl)cccc2/C1=C\c1ccc(-c2cccc(C(=O)NCCN3CCCC3)c2)o1 [Compound 41] | 19 |
| CN(C)CCCOc1ccc(-c2ccc(/C=C3/C(=O)Nc4ccccc43)o2)cn1 [Compound 125] | 41.5 |
| O=C1Nc2ccccc2/C1=C\c1ccc(-c2ccccc2C(=O)NCCN2CCCC2)o1 [Compound 54] | 3.52 |
| O=C1Nc2ccccc2/C1=C\c1ccc(-c2ccc(C(=O)O)c(O)c2)o1 [Compound 170] | 43 |

Second part, the molecule after the results:

| inhibition at 2 µM [%] | SMILES |
| --- | --- |
| 2.87 | CN1CCC(N(C)C(=O)c2cccc(-c3coc(/C=C4/C(=O)Nc5ccc(F)cc54)c3)c2)C1 (centres unmarked) [Compound 91] |
| 51.9 | CN(C)C1CCN(C(=O)c2ccc(-c3ccc(/C=C4/C(=O)Nc5ccc(F)cc54)o3)cc2)CC1 [Compound 87] |
| 91.3 | CCN1CCCC1CNC(=O)c1ccc(-c2ccc(/C=C3/C(=O)Nc4ccc(F)cc43)o2)cc1 (centres unmarked) [Compound 84] |
| 42.6 | CN1CCCC(NC(=O)c2cccc(-c3ccc(/C=C4/C(=O)Nc5ccc(Cl)cc54)o3)c2)C1 (centres unmarked) [Compound 111] |
| 10.8 | CN(C)C1CCN(C(=O)c2cccc(-c3coc(/C=C4/C(=O)Nc5ccc(F)cc54)c3)c2)CC1 [Compound 96] |
| -2.39 | Cn1cncc1CNC(=O)c1ccccc1-c1ccc(/C=C2/C(=O)Nc3ccc(F)cc32)o1 [Compound 65] |
| 42.2 | O=C1Nc2ccc(F)cc2/C1=C\c1ccc(-c2cccc(C(=O)N3CCOCC3)c2)o1 [Compound 19] |
| 37.1 | CN1CCC(N(C)C(=O)c2cc(-c3ccc(/C=C4/C(=O)Nc5ccc(F)cc54)o3)ccc2Cl)C1 (centres unmarked) [Compound 72] |
| -19.1 | O=C1Nc2ccc(F)cc2/C1=C\c1cc(-c2cccc(C(=O)NCc3ccncc3)c2)co1 [Compound 95] |
| 9.42 | CN1CCCCC1CNC(=O)c1cccc(-c2coc(/C=C3/C(=O)Nc4ccc(F)cc43)c2)c1 (centres unmarked) [Compound 93] |
| 32.7 | O=C1Nc2ccc(Cl)cc2/C1=C\c1ccc(-c2cccc(C(=O)NCCN3CCCC3)c2)o1 [Compound 43] |
| -6.8 | COC(=O)c1ccccc1-c1ccc(/C=C2/C(=O)Nc3ccc(F)cc32)o1 [Compound 30] |
| 32.7 | COc1cc(CNC(=O)c2cccc(-c3ccc(/C=C4/C(=O)Nc5ccc(Cl)cc54)o3)c2)ccn1 [Compound 142] |
| 20.4 | O=C1Nc2ccc([N+](=O)[O-])cc2/C1=C\c1ccc(-c2cccc(C(=O)NCCN3CCCC3)c2)o1 [Compound 52] |
| 26.6 | Cc1cnc(CNC(=O)c2ccc(-c3ccc(/C=C4/C(=O)Nc5ccc(F)cc54)o3)cc2)cn1 [Compound 82] |
| 43.6 | O=C1Nc2ccccc2/C1=C\c1ccc(-c2ccc(C(=O)NCc3ccncc3)nc2)o1 [Compound 135] |
| -0.11 | CN(CCc1ccccn1)C(=O)c1cccc(-c2ccc(/C=C3/C(=O)Nc4ccc(Cl)cc43)o2)c1 [Compound 171] |
| 5.32 | CCN1CCCC1CNC(=O)c1cc(-c2ccc(/C=C3/C(=O)Nc4ccc(F)cc43)o2)ccc1Cl (centres unmarked) [Compound 71] |
| 15.6 | CCN(CC)CCNC(=O)c1cc(-c2ccc(/C=C3/C(=O)Nc4ccc(F)cc43)o2)ccc1Cl [Compound 74] |
| 12.7 | Cn1cncc1CNC(=O)c1cccc(-c2coc(/C=C3/C(=O)Nc4ccc(F)cc43)c2)c1 [Compound 92] |
| 17.1 | CCN1CCCC1CNC(=O)c1cccc(-c2coc(/C=C3/C(=O)Nc4ccc(F)cc43)c2)c1 (centres unmarked) [Compound 90] |
| 21.2 | CN(C)C(=O)c1cccc(-c2ccc(/C=C3/C(=O)Nc4ccc(Cl)cc43)o2)c1 [Compound 175] |
| 49.6 | COCCNC(=O)c1cccc(-c2ccc(/C=C3/C(=O)Nc4ccc(F)cc43)o2)c1 [Compound 17] |
| -21.9 | CN1CCCCC1CNC(=O)c1cccc(-c2ccc(/C=C3/C(=O)Nc4cccc(Br)c43)o2)c1 (centres unmarked) [Compound 45] |
| 38.1 | CN(C)C1CCN(C(=O)c2cccc(-c3ccc(/C=C4/C(=O)Nc5ccc(Cl)cc54)o3)c2)CC1 [Compound 113] |
| 22.9 | O=C1Nc2ccc(C(F)(F)F)cc2/C1=C\c1ccc(-c2cccc(C(=O)NCCN3CCCC3)c2)o1 [Compound 47] |

Same assay, conditions: Table 1; given for compounds with IC50 at or below 2 micromolar; 15 uM ATP; read-out: PIM-1 IC50

| SMILES | IC50 [µM] |
| --- | --- |
| CN1CCCC1N(C)C(=O)c1ccc(-c2ccc(/C=C3/C(=O)Nc4ccccc43)o2)cc1 (centres unmarked) [Compound 33] | < 1 |
| CN1CCCN(C(=O)c2cccc(-c3ccc(CC4C(=O)Nc5ccc(Cl)cc54)o3)c2)CC1 (centres unmarked) [Compound 197] | < 1 |
| CCN(CC)CCC(=O)Nc1cccc(-c2ccc(/C=C3/C(=O)Nc4ccccc43)o2)c1 [Compound 185] | < 1 |
| CCN(CC)CC(=O)Nc1cccc(-c2ccc(/C=C3/C(=O)Nc4ccccc43)o2)c1 [Compound 187] | < 1 |
| CN(CCN1CCCC1)C(=O)c1ccc(-c2ccc(/C=C3/C(=O)Nc4ccccc43)o2)cc1 [Compound 34] | < 1 |

Continued, values first:

| IC50 [µM] | SMILES |
| --- | --- |
| < 2 | CN(C)C1CCN(C(=O)c2ccc(-c3ccc(/C=C4/C(=O)Nc5ccc(F)cc54)o3)cc2)CC1 [Compound 87] |
| < 1 | CCN1CCCC1CNC(=O)c1ccc(-c2ccc(/C=C3/C(=O)Nc4ccc(F)cc43)o2)cc1 (centres unmarked) [Compound 84] |
| < 1 | COC(=O)c1ccc2c(c1)/C(=C\c1ccc(-c3cccc(C(=O)NCCN4CCCC4)c3)o1)C(=O)N2 [Compound 5] |
| < 1 | O=C1Nc2ccc(Cl)cc2/C1=C\c1ccc(-c2cccc(C(=O)NCC(O)c3cccnc3)c2)o1 (centres unmarked) [Compound 189] |
| < 1 | CCN1CCCC1CNC(=O)c1cncc(-c2ccc(/C=C3/C(=O)Nc4ccc(Cl)cc43)o2)c1 (centres unmarked) [Compound 150] |
| < 1 | Cn1cncc1CNC(=O)c1ccc(-c2ccc(/C=C3/C(=O)Nc4ccccc43)o2)cn1 [Compound 132] |
| < 2 | CCN(CC)CCNC(=O)c1cccc(-c2ccc(/C=C3/C(=O)Nc4ccc(Cl)cc43)o2)c1 [Compound 120] |

Same assay, conditions: Table 2; read-out: PIM1: IC50

| IC50 [µM] | SMILES |
| --- | --- |
| < 0.1 | CN1CCCN(C(=O)c2cccc(-c3ccc(CC4C(=O)Nc5ccc(Cl)cc54)o3)c2)CC1 (centres unmarked) [drawing 213] |

Same assay, conditions: Table 3; DMSO 4%; read-out: PIM1: IC50 (DMSO 4%)

| IC50 [µM] | SMILES |
| --- | --- |
| < 1 | CN1CCCN(C(=O)c2cccc(-c3ccc(/C=C4/C(=O)Nc5ccc(F)cc54)o3)c2)CC1 |
| < 1 | NS(=O)(=O)c1ccc(-c2ccc(/C=C3/C(=O)Nc4ccc(Cl)cc43)o2)cc1 |
| < 1 | CN1CCN(c2ccc(-c3ccc(/C=C4\C(=O)Nc5ccc(Cl)cc54)o3)cn2)CC1 |

Same assay, conditions: Table 4; 15 um ATP; read-out: PIM1: IC50 (15 um ATP)

| IC50 [µM] | SMILES |
| --- | --- |
| 0.992 | Nc1cccc(-c2ccc(/C=C3/C(=O)Nc4ccccc43)o2)c1 [drawing 234] |

What follows are molecules tested on MiaPaca human pancreatic carcinoma cells (assay: Alamar Blue cell proliferation assay, MiaPaCa). Conditions: MIA PaCa-2, Table 2, read-out: AB: MiaPaCa.
Format: cell-based
Protocol: (§1) A representative cell-proliferation assay protocol using Alamar Blue dye (stored at 4° C., use 20 ul per well) is described hereafter.
(§2) 96-Well Plate Setup and Compound Treatment
(§3) a. Split and trypsinize cells.
(§4) b. Count cells using hemocytometer.
(§5) c. Plate 4,000-5,000 cells per well in 100 μl of medium and seed into a 96-well plate according to the following plate layout. Add cell culture medium only to wells B10 to B12. Wells B1 to B9 have cells but no compound added.
(§6) d. Add 100 μl of 2× drug dilution to each well in a concentration shown in the plate layout above. At the same time, add 100 μl of media into the control wells (wells 1310 to B12). Total volume is 200 μl/well.
(§7) e. Incubate four (4) days at 37° C., 5% CO2 in a humidified incubator.
(§8) f. Add 20 μl Alamar Blue reagent to each well.
(§9) g. Incubate for four (4) hours at 37° C., 5% CO2 in a humidified incubator.
(§10) h. Record fluorescence at an excitation wavelength of 544 nm and emission wavelength of 590 nm using a microplate reader.
(§11) In the assays, cells are cultured with a test compound for approximately four days, the dye is then added to the cells and fluorescence of […] dye is detected after approximately four hours. Different types of cells can be utilized in the assays (e.g., HCT-116 human colorectal carcinoma cells, PC-3 human prostatic cancer cells and MiaPaca human pancreatic carcinoma cells).

| IC50 [µM] | SMILES |
| --- | --- |
| 0.559 | CN1CCCN(C(=O)c2cccc(-c3ccc(CC4C(=O)Nc5ccc(Cl)cc54)o3)c2)CC1 (centres unmarked) [drawing 213] |

Each molecule was assayed on MV-4-11 (assay: Alamar Blue cell proliferation assay, MV-4-11). Conditions: Homo sapiens, MV4-11, Table 4, read-out: AB: MV-4-11.
Format: cell-based
Protocol: as §1, §2, §3, §4, §5, §6, §7, §8, §9, §10, §11

| IC50 [µM] | SMILES |
| --- | --- |
| 2.44 | Nc1cccc(-c2ccc(/C=C3/C(=O)Nc4ccccc43)o2)c1 [drawing 234] |

The molecules below were run on PC-3 human prostatic cancer cells (assay: Alamar Blue cell proliferation assay, PC3). Conditions: Table 2, read-out: AB: PC3.
Format: cell-based
Protocol: as §1, §2, §3, §4, §5, §6, §7, §8, §9, §10, §11

| IC50 [µM] | SMILES |
| --- | --- |
| 15.4 | CN1CCCN(C(=O)c2cccc(-c3ccc(CC4C(=O)Nc5ccc(Cl)cc54)o3)c2)CC1 (centres unmarked) [drawing 213] |

Same assay, conditions: Table 3, read-out: AB: PC3

| IC50 [µM] | SMILES |
| --- | --- |
| > 10 | CN1CCCN(C(=O)c2cccc(-c3ccc(/C=C4/C(=O)Nc5ccc(F)cc54)o3)c2)CC1 |
| > 10 | NS(=O)(=O)c1ccc(-c2ccc(/C=C3/C(=O)Nc4ccc(Cl)cc43)o2)cc1 |

The molecules below were run on K-562 (assay: Alamar Blue cell proliferation assay, K-562). Conditions: Homo sapiens, K562, Table 2, read-out: AB: K-562.
Format: cell-based
Protocol: as §1, §2, §3, §4, §5, §6, §7, §8, §9, §10, §11

| IC50 [µM] | SMILES |
| --- | --- |
| 0.24 | CN1CCCN(C(=O)c2cccc(-c3ccc(CC4C(=O)Nc5ccc(Cl)cc54)o3)c2)CC1 (centres unmarked) [drawing 213] |

Same assay, conditions: Homo sapiens, K562, Table 4, read-out: AB: K-562

| IC50 [µM] | SMILES |
| --- | --- |
| 5.13 | Nc1cccc(-c2ccc(/C=C3/C(=O)Nc4ccccc43)o2)c1 [drawing 234] |
